Residues, ends and D or L forms follow the SMILES beside them.
Columns and labels:
[1] = CD titration: dependence of [θ]222 on free metal ion concentration, NiCl2; type: binding; conditions: NiCl2, pH 6.3; peptide 6.1×10^-5 M in 5 mM sodium borate, 21° C.
From the text: (§1) FIG. 4 illustrates the dependence of mean residue molar ellipticity at 222 nm ([.THETA.]222 ×10^-3) of peptides SEQ ID NO's:2 AND 3 on the concentration of free metal ions when measured as described in Example 3A(2).
(§2) The peptide metal salt solution admixtures prepared as in Example 2A were subjected to CD analyses according to published procedures to measure the degree of stability induced by metal ion complexation with peptides. Greenfield et al., Biochem, 8:4108 (1969) and Johnson, Ann. Rev. Biophvs. Chem., 17:145 (1988). All CD data reported herein have an uncertainty of ±2 to 5% for a 100% helix, [θ]222 =-35,000, and are based on several CD measurements of both peptides SEQ ID NO's:2 and 3 in the presence and absence of metal ions in various TFE/H20 mixtures at -10° to 20° C.
(§3) Both Cu(II) and Zn(II) bound peptide SEQ ID NO:3 with similar affinities and increased the helical content to the same extent.

[2] = CD titration: dependence of [θ]222 on free metal ion concentration, CuCl2; type: binding; conditions: CuCl2, pH 5.3; peptide 6.1×10^-5 M in 5 mM sodium borate, 21° C.
From the text: as §1, §2, §3

[3] = Circular dichroism (CD) to measure degree of secondary structure (alpha-helicity); type: physicochemical
Procedure: ID No's. 3 and 4. The analysis was performed as described above.
Proton nuclear magnetic resonance spectra were recorded at 300MHz on Bruker AM300 spectrometer and are reported in parts per million (ppm) downfield from Me4 Si. Ultraviolet-visible spectra were recorded on Aviv Associates 14DS and Milton Roy Spectronic 3000 Array spectrometers. Circular dichroism measurements were made on Aviv Associates 62DS spectrometer equipped with a thermostable cell holder using 10, 1, and 0.1 mm Hellma quartz cells. All reported CD data have an uncertainty of ±2-5%. All ellipticity measurements are expressed as mean residue ellipticity, [θ], having the units deg·cm^2 ·dmol-^1.

[4] = CD titration: dependence of [θ]222 on free metal ion concentration, CdCl2; type: binding; conditions: CdCl2, pH 7.5; peptide 6.1×10^-5 M in 5 mM sodium borate, 21° C.
From the text: as §1, §2, §3

[5] = Metal ion selectivity and relative affinities by CD analysis; type: binding; conditions: CD analysis; peptide SEQ ID NO:11 at pH 6.0
From the text: Metal ion selectivity is an expected consequence of site specific metal-ligand interaction. The extent of helical induction, to a first approximation, depends on the affinity of metal ion toward the ligands employed, and on the compatibility of metal ion geometry and coordination sphere with the alpha-helical conformation. Thus, although numerous metal ions can induce and stabilize alpha-helix formation, the metal ion having the greatest relative affinity for the ligands employed is preferred and can readily be determined. […]
Peptides, prepared as in Example 1, and admixed with various metal salt solutions as described in Example 2B, were subjected to CD analysis to characterize metal ion selectivity with respect to the position of the metal binding site in the alpha-helical sequence.

[6] = CD titration: dependence of [θ]222 on free metal ion concentration, ZnCl2; type: binding
From the text: as §1, §2, §3

[7] = Heat denaturation assay to measure melting temperatures; type: physicochemical
Procedure: In order to assess differences in helix stability between the metal ion complexed and uncomplexed forms of peptides Seq. ID No's. 3 and 4, the conformational stability of each peptide in the presence and absence of transition metal ions was determined from heat denaturation studies according to published procedures. Pace et al., In Protein structure, p. 311., IRL Press, (1989). The analysis of the thermal denaturation curves afforded linear ΔG vs. T and van't Hoff plots. […] Complexed peptides Seq. ID No's.
Because tris-bipyridyl-metal ion coordination complexes are chiral and can form either a left-handed or a right-handed helix, two diastereomeric tri-helical structures can possibly be formed. The stereogenic environment of the ensuing parallel tri-helical topology as well as the geometrical constraints imposed by the overall C3 symmetry of the coordination complex was expected, however, to enforce a high degree of diastereoselectivity in the assembly process. The CD spectrum (in the region of 280 and 330 nm) of the peptide in the presence of Ni(II) indicated the formation of one diastereomer having a left-handed helical configuration. Such a behavior is also consistent with the expected left handed supercoil of the tri-helical metallopolypeptide. The analysis of the thermal denaturation curves for the metallopolypeptide in the presence of Ni(II) yielded linear ΔG vs T and van't Hoff plots.

[8] = Absorption spectroscopy pH profile of Ru(III)-peptide complexes; type: physicochemical; conditions: from absorption data vs pH
From the text: The Ru(III)-peptide SEQ ID NO:3 complex prepared as in Example 2B was subjected to absorption spectroscopy to further confirm the formation of a metallopeptide complex.
The pronounced shift in absorption maxima with increasing pH value is consistent with the behavior of the Ru(III) ions containing coordinated imidazoles and is attributed to N-H deprotonation at the "pyrrole nitrogen", Sunberg et al., J. Am. Chem. Soc., 96:381 (1974). […] The spectral similarity with the simple ruthenium(III)imidazole complexes and the characteristically facile metal-ion promoted imidazole NH ionization provide further support for the formation of the metallopeptide complex.

[9] = in the presence of Cu(II) ions (CuSO4, solution 13) at 0° C.

Kd [1] [µM]	Kd [2] [µM]	alpha-helicity [3, 9]	θ222 [3, 9]	dependence of CD spectra on peptide concentration ([3]; presence and absence of metal ions, 0.5-70 μM)	Kd [4] [µM]	Kd ([6]; ZnCl2, pH 7.5, peptide 6.1×10^-5 M in 5 mM sodium borate, 21° C.) [µM]	Compound	dependence of helicity on added NaF ([3]; NaF up to 250 mM, 5 mM sodium borate)	alpha-helicity ([3]; room temperature in water) [%]	θ222 ([3]; room temperature in water)	metal ions bound, order of affinity [5]	effect of Zn(II) on helical content ([6]; CD analysis, ZnCl2)	melting temperature (Tm) [7] [°C]	pKa of the imidazole NH of the coordinated histidine [8]
210	66	about 90%	-31,100	independent of the peptide concentration	220	75	CC(=O)N[C@@H](C)C(=O)N[C@@H](CCC(=O)O)C(=O)N[C@@H](C)C(=O)N[C@@H](C)C(=O)N[C@@H](C)C(=O)N[C@@H](CCCCN)C(=O)N[C@@H](CCC(=O)O)C(=O)N[C@@H](C)C(=O)N[C@@H](C)C(=O)N[C@@H](C)C(=O)N[C@@H](CCCCN)C(=O)N[C@@H](Cc1c[nH]cn1)C(=O)N[C@@H](C)C(=O)N[C@@H](C)C(=O)N[C@@H](C)C(=O)N[C@@H](Cc1c[nH]cn1)C(=O)N[C@@H](C)C(N)=O [peptide SEQ ID NO:3, Ac--Ala--Glu--Ala--Ala--Ala--Lys--Glu--Ala--Ala--Ala--Lys--His--Ala--Ala--Ala--His--Ala--CONH2] (Ac-AEAAAKEAAAKHAAAHA-NH2)	independent of concentration of added NaF up to 250 mM	45	-16,600	Ni(II), Cd(II), Cu(II) and Zn(II) in descending order of affinity	considerable helical induction	11	
							Ru(III)-peptide SEQ ID NO:4 complex: exchange-inert macrocyclic cis-[Ru(NH3)4 (L)2 ]^3+ complex of peptide SEQ ID NO:4 through two His residues at i and i+4 (AEAAAKHAAAHEAAAKA; Ru(III) tetraammine macrocyclic complex via two His)		50	-17,300			9.5	7.5
